Counter-ions that a name gives are not always drawn.
Legend:
[1] = Aqueous solubility of sildenafil mesylate; format: physicochemical; settings: no solubility enhancing agent
Procedure: Preferred as solubility enhancing agents are caffeine (preferably at a concentration of from 1.0 to 2.5% weight/vol); nicotinamide (preferably 3.0 to 20.0% weight/vol); vanillin (preferably 0.5 to 2.5% weight/vol); and benzyl alcohol (preferably 0.5 to 2.5% weight/vol). A combination of nicotinamide and vanillin is also preferred. By using such solubility enhancing agents, it is possible to increase the solubility of sildenafil mesylate in water from approximately 60 mg/ml to in excess of 100 mg/ml. This allows a more concentrated solution to be administered facilitating a rapid onset of action and reducing irritancy. One particular and preferred formulation comprises sildenafil mesylate 100 mg/ml and caffeine 15 mg/ml in a buffered aqueous solution. The pH of the solution is preferably adjusted to pH 3-5, preferably to pH 4.2 by the addition of a base e.g. sodium hydroxide.

[2] = Plasma levels in human volunteers after intranasal administration; format: in vivo; settings: man
[3] = Plasma levels in dogs after intranasal versus oral dosing; format: in vivo
Procedure: The effectiveness of the intranasal formulations of the present invention were evaluated in dogs. Four fasted dogs were lightly anaesthetised, each received 5 mg of the cGMP-PDE5 inhibitor in both nostrils. The drug was administered both as a powder and as a solution. Plasma levels of the active agent were measured and compared with plasma levels obtained when the dogs were previously orally dosed with the agent.
Thus a solution dose of 0.7 mg/kg of sildenafil mesylate administered by the intranasal route to four dogs gave a mean peak blood plasma levels of 407 ng/ml after a period of 5 minutes.

[4] = four dogs, intranasal route, solution dose 0.7 mg/kg

Compound	solubility in water [1]	blood plasma levels of sildenafil versus oral dosing [2]	time of peak blood plasma levels after administration [2] [min]	blood plasma levels after intranasal versus oral administration ([3]; dogs, intranasal powder and solution, 5 mg in both nostrils, compared with oral dosing)	mean peak blood plasma level [3, 4] [ng/mL]	time of mean peak blood plasma level [3, 4] [min]	mean peak blood plasma level ([3]; dog, in vivo, po, 1.4 mg/kg) [ng/mL]	time of mean peak blood plasma level ([3]; dog, in vivo, po, 1.4 mg/kg) [min]
5-[2-ethoxy-5-(4-methylpiperazin-1-ylsulphonyl)phenyl]-1,6-dihydro-1-methyl-3-propylpyrazolo[4,3-d]pyrimidin-7-one)methanesulphonate salt [sildenafil mesylate]	approximately 60 mg/ml	comparable with oral dosing	5 to 15	particularly effective	407	5	–	–
CCCc1nn(C)c2c(=O)[nH]c(-c3cc(S(=O)(=O)N4CCN(C)CC4)ccc3OCC)nc12 [sildenafil citrate, reference compound]	–	–	–	–	–	–	204	136

Source: patent US20020040139A1, “INTRANASAL FORMULATIONS FOR TREATING SEXUAL DISORDERS” (priority 1998, published 2002)
